In patent US7163944B2, “Cyclic diamine compound and pharmaceutical containing the same” (Kowa Co., Ltd., priority 2004, dated 2007):

Tests used:
[1] = biological target: T1, ACAT (Mus musculus, UniProt Q61263); assay: Cholesterol ester accumulation inhibitory action (ACAT inhibitory activity) in J774 cells; type: cell-based; conditions: 25-hydroxycholesterol 10 μg/ml, 18 hours incubation, concentration inhibiting 50% of CE production, N=4
T1 construct: endogenous in cells; host or cells: J774 cells
T1 sequence (Q61263 1-540): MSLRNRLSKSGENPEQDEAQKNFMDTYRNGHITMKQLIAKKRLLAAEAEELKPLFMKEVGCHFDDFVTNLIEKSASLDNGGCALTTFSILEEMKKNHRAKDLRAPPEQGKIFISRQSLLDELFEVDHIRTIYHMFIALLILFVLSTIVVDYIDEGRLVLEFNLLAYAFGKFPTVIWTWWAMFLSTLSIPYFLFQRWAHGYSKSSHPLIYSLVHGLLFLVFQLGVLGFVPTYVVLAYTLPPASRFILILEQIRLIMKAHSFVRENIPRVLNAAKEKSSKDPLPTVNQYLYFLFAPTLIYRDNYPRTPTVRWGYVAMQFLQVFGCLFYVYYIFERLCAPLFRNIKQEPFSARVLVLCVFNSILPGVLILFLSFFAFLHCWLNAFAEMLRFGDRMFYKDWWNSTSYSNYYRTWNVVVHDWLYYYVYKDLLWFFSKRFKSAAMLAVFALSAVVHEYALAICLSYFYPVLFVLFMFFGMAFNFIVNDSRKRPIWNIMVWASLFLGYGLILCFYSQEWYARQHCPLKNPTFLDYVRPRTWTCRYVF
Procedure: Test 1: Cholesterol Ester Accumulation Inhibitory Action (ACAT Inhibitory Activity) in J774 Cells.
J774 cells (2×10^5 cells/well) were seeded on a 24-well plate and incubated for 24 hours in 500 μL of DMEM (10% FBS). After replacement with a new medium, 25-hydroxycholesterol (10 μg/ml) and a test compound (final concentration: 0, 10^−9 to 10^−5 mol/L) were added, followed by incubation for 18 hours. After washing with 0.9% NaCl, the lipid was extracted with 250 μL of hexane-isopropanol (3:2) and then extracted with 250 μL of hexane-isopropanol (3:2) again. After the extracts were combined and distilled, the amount of cholesterol ester (CE) thus obtained was determined by the fluorescent enzyme assay. The cells from which the lipid was extracted were subjected to protein assay (micro BCA assay) and the amount of CE per mg of protein was determined. From a CE production ratio of the test compound to the control, IC50 (concentration of the compound inhibiting 50% of CE production) was calculated at N=4.

[2] = Metabolic stability in human liver microsomes; type: in vitro ADME
Procedure: Test 2: Test on Metabolic Stability in Human Liver Microsomes
In accordance with the below-described Table 2, an NRS (NADPH regenerating system) solution and 16% human serum albumin were added to a 0.1 mol/L phosphate buffer (containing 3.3 mM magnesium chloride) (pH 7.4), followed by the addition of a solution of a test compound (100 μM) in acetonitrile (0.01 mL). After preincubation in a warm bath of 37° C. for 5 minutes, human liver microsomes (POOLED HUMAN LIVER MICROSOMES, Lot. No. 20, product of GENETEST) were added and a reaction was effected for 30 minutes in a warm bath of 37° C. A 0.25 mL portion of the reaction mixture was collected 0 and 30 minutes after the initiation of the reaction, followed by extraction. The amount of the test compound was measured by HPLC. A remaining ratio of the unchanged compound after 30 minutes was calculated based on the following equation: (peak area after 30 minutes/peak area at 0 minute)×100.
To each sample were added 1.0 mL of a glycine buffer (pH 10), 0.1 mL of an internal standard substance and 5.0 mL of tert-butyl methyl ether, followed by shaking for 10 minutes and centrifugal separation at 2500 rpm for 10 minutes to collect the organic layer.

[3] = tested on: lipid-loaded F1B hamster model; assay: Aorta lipid deposition suppression test, lipid-loaded F1B hamster model; type: in vivo; conditions: Bio F1B male hamsters, fat-rich diet 10 weeks, 1 mg/kg orally twice a day, aorta Oil red O area vs control group
Procedure: Test 3: Aorta Lipid Deposition Suppression Test
In accordance with the method of Nicolosi, et al., a test using an animal model of arteriosclerosis, that is, a lipid-loaded F1B hamster model was made and a lipid deposition area in the aortic arch was measured to investigate the effects of the test compound for suppressing lipid deposition [refer to Nicolosi R J, et al., Atherosclerosis 137, 77–85(1988)].
Bio F1B male hamsters purchased from Charles River Japan, Inc. were divided at random into three groups (a compound (1) administered group, a comparative compound (B) administered group and a medicament non-administered group (control group)), each group consisting of 6 hamsters. […] After 10 weeks, an area of the lipid deposited in the aorta was measured by an image analyser. […]
An 18-G injection needle was inserted into the cardiac apex, followed by perfusion with physiological saline (120 mmHg) for about 5 minutes, and then, with a 4% paraformaldehyde solution (120 mmHg) for about 5 minutes. […] The image was scanned into a computer and the area of the portion stained with Oil red 0 and the area of the lumen surface were measured using an image analyser software (“Win Roof”, product of Mitani Shoji). In each case of each group, a ratio of the area of the portion stained with Oil Red O to the lumen surface area was calculated and it was designated as an aorta lipid deposition ratio. […]

IC50 [1]: 0.049 µM
remaining ratio of the unchanged compound after 30 minutes ([2]; pooled human liver microsomes, 37° C., 30 minutes, NADPH regenerating system, human serum albumin, HPLC): 38%
metabolic resistance in human liver microsomes relative to compound (B) ([2]; times higher than compound (B)): about 40 times
melting point: 176 to 177 °C
Structure (SMILES): O=C(CN1CCN(CCSc2nc3cccc(C(F)(F)F)c3o2)CC1)Nc1c(C(F)(F)F)cc(O)cc1C(F)(F)F [compound (1), 2-[4-[2-(7-trifluoromethylbenzoxazol-2-ylthio)ethyl]piperazin-1-yl]-N-[4-hydroxy-2,6-bis(trifluoromethyl)phenyl]acetamide]
lipid deposition suppression ratio [3]: 43%
